This note sets out measurements from the OligoGym collection.

This data set addresses HSD17B13. The note with it: ASO, HepaRG.

After the bases stand the sugars from the 5' end (letter, count) and the backbone: PS all phosphorothioate, else s phosphorothioate and o phosphodiester by linkage. Methylation of C is not given here. e = 2'-O-(2-methoxyethyl) (MOE); k = constrained ethyl (cEt); d = 2'-deoxy (DNA); m = 2'-O-methyl

With CATTTAGCAGCTTGGA (sugars k3 d10 k3, PS), the target mRNA inhibition amounted to 0% (0.02 µM); 0% (0.078 µM); 54% (0.313 µM); 88% (1 µM); 75% (1.25 µM); 86% (5 µM).
Sequence ACGATGTGGCCATGAT (sugars k3 d10 k3, PS) yielded a target mRNA inhibition (1 µM) of 52%.
Same read-out and setting: for TTCGAAACTATTCATA (sugars k3 d10 k3, PS) the value was 44%; for “TTAAACCTTCCCTGTG (sugars kkdddddddddkekek, PS)”, 0%; for “GATGCTCCATAATAAT (sugars kkdddddddddkekek, PS)”, 17%.
Still for that read-out and setting: for TGACAATGTGCAGCTC (sugars k3 d10 k3, PS) the value was 64%.
Still for that read-out and setting: for “TAGAGTCGGTCACCTT (sugars k3 d1 m1 d8 k3, PS)” the value was 55%.
Sequence “GGCTACAGATTGGAAT (sugars kkdddddddddkekek, PS)” registered a target mRNA inhibition (0.02 µM) of 16%; a target mRNA inhibition (0.078 µM) of 0%; a target mRNA inhibition (0.313 µM) of 27%; a target mRNA inhibition (1 µM) of 73%; a target mRNA inhibition (1.25 µM) of 62%; a target mRNA inhibition (5 µM) of 83%.
As for GAATTTTTGAGGTTGG (sugars k3 d10 k3, PS), the target mRNA inhibition reads like this: (0.02 µM) 17%; (0.078 µM) 26%; (0.313 µM) 62%; (1 µM) 77%; (1.25 µM) 92%; (5 µM) 91%.
In the case of AGAAGATATTATCAGC (sugars k3 d10 k3, PS), the target mRNA inhibition (1 µM) was 64%.
Still for that read-out and setting: for CTATCATGCCTTCCCC (sugars k3 d10 k3, PS) the value was 1%; for “TTGGAATGCTACTTGA (sugars kkdddddddddkekek, PS)”, 54%.
As to TTAGAATACGCTGAGA (sugars k3 d10 k3, PS), the target mRNA inhibition (1 µM) amounted to 48%.
The same measure, in the same setting: next, AGACAAGAGTTCTTGC (sugars k3 d10 k3, PS): 30%.
The same measure, in the same setting: next, GAGAGTAATCAGTTTT (sugars k3 d10 k3, PS): 27%; GATAAGAAGAGAGCTC (sugars k3 d10 k3, PS): 36%; ACTAACCAATTATATG (sugars k3 d10 k3, PS): 6%.
Same read-out and setting: for TCTCTAAAGCAGGCTA (sugars k3 d10 k3, PS) the value was 60%; for TGTCATAAAAATCGCT (sugars k3 d10 k3, PS), 57%; for TTAATTTTCGGGTTCT (sugars k3 d10 k3, PS), 31%.
For the setting “1 µM”, AGAAAGTTCATTCGAA (sugars k3 d10 k3, PS) showed a target mRNA inhibition of 61%.
With CTCATTTATGTACCAA (sugars k3 d10 k3, PS), the target mRNA inhibition was 0% (0.02 µM); 50% (0.078 µM); 75% (0.313 µM); 87% (1 µM); 79% (1.25 µM).
Take “TGAACAGTCTTAAACC (sugars k3 d9 k3 e1, PS)”: the target mRNA inhibition (1 µM) worked out at 61%.
On the same count and under the same terms, for “CCTATATACATCCAAG (sugars k3 d9 k3 e1, PS)” the value was 63%.
Turning to CTGTTGCAAGTTCTTC (sugars k3 d10 k3, PS), the target mRNA inhibition reads like this: (0.02 µM) 0%; (0.078 µM) 0%; (0.313 µM) 49%; (1 µM) 85%; (1.25 µM) 73%; (5 µM) 88%.
GCCAAACTGCTACTGT (sugars k3 d10 k3, PS) returned a target mRNA inhibition (0.02 µM) of 1%; a target mRNA inhibition (0.078 µM) of 13%; a target mRNA inhibition (0.313 µM) of 41%; a target mRNA inhibition (1 µM) of 73%; a target mRNA inhibition (1.25 µM) of 63%; a target mRNA inhibition (5 µM) of 76%.
Take GTATCTTAAGAGAAGG (sugars k3 d10 k3, PS): the target mRNA inhibition (1 µM) was 30%.
Same read-out and setting: next, CGCGCTTATTAATATC (sugars k3 d10 k3, PS): 6%; AAGCTTATCGAGTTTA (sugars k3 d10 k3, PS): 26%; TTCCTCCACACCGCGC (sugars k3 d10 k3, PS): 47%.
Same read-out and setting: next, AAGGAAGAGGCTAGGG (sugars k3 d10 k3, PS): 57%; GAAGCCACTGTGACGA (sugars k3 d10 k3, PS): 58%; AGTAGGAGTAGATGAT (sugars k3 d10 k3, PS): 0%.
The sequence TATTGTAGGGATTGAA (sugars k3 d10 k3, PS) showed a target mRNA inhibition (1 µM) of 40%.
The same measure, in the same setting: for CTCCAGTAATGAGAAC (sugars k3 d10 k3, PS) the value was 40%; for AGACAATACAGGATAG (sugars k3 d10 k3, PS), 15%.
On the same count and under the same terms, for GACTTCAGAGTTATAC (sugars k3 d10 k3, PS) the value was 16%; for GGTCACCTTTCATAAT (sugars k3 d10 k3, PS), 57%.
In the case of TACAGTTCCTTTTCCT (sugars k3 d10 k3, PS), the target mRNA inhibition (1 µM) amounted to 68%.
In the case of “AGTCCATGCAAAAGCA (sugars k3 d9 k3 e1, PS)”, the target mRNA inhibition (0.02 µM) stood at 1%; the target mRNA inhibition (0.078 µM) was 15%; the target mRNA inhibition (0.313 µM) came to 43%; the target mRNA inhibition (1 µM) came to 80%; the target mRNA inhibition (1.25 µM) is 74%; the target mRNA inhibition (5 µM) came out at 85%.
Sequence TAACTAACCTGACACA (sugars k3 d10 k3, PS) had a target mRNA inhibition (1 µM) of 57%.
On the same count and under the same terms, next, AGTGAACATACATTGT (sugars k3 d10 k3, PS): 48%; TCCCCTCAAATAGCCT (sugars k3 d10 k3, PS): 60%.
Same read-out and setting: for AATAATGGGCAGAGCT (sugars k3 d10 k3, PS) the value was 43%; for CAAAGTTAATAGGACT (sugars k3 d10 k3, PS), 50%; for GGAAATTCACAATCTA (sugars k3 d10 k3, PS), 22%.
Regarding GGCTTTATCATTCTAA (sugars k3 d10 k3, PS), the target mRNA inhibition (1 µM) was found to be 20%.
For the sequence TGATTTAGTTGGTAGC (sugars k3 d10 k3, PS), the target mRNA inhibition was found to be 7% (0.02 µM); 43% (0.078 µM); 73% (0.313 µM); 79% (1 µM); 84% (1.25 µM); 94% (5 µM).
For the sequence “CATAATAATAGCTCTA (sugars k3 d9 k3 e1, PS)”, where the note is “1 µM”, the target mRNA inhibition was determined as 55%.
Same read-out and setting: for GGATTTCTAGGATGAT (sugars k3 d10 k3, PS) the value was 58%; for “GAGTCGGTCACCTTTC (sugars kkdddddddddkekek, PS)”, 62%; for TAAACTGTATGCCTCT (sugars k3 d10 k3, PS), 49%.
For GATGGTAAGTCAAATA (sugars k3 d10 k3, PS), the target mRNA inhibition amounted to 22% (0.02 µM); 34% (0.078 µM); 47% (0.313 µM); 85% (1 µM); 74% (1.25 µM); 90% (5 µM).
“CCAGTACAGTTCCTTT (sugars kkdddddddddkekek, PS)”: the target mRNA inhibition was 29% (0.02 µM); 21% (0.078 µM); 44% (0.313 µM); 75% (1 µM); 61% (1.25 µM); 90% (5 µM).
As for AATTCACCTTGACTAA (sugars k3 d10 k3, PS), the target mRNA inhibition (1 µM) turned out to be 9%.
The same measure, in the same setting: for AGTAAATTGAATAGCC (sugars k3 d10 k3, PS) the value was 39%; for TCACCTTATTAATATC (sugars k3 d10 k3, PS), 0%.
On the same count and under the same terms, for GATACAAATTTATTGG (sugars k3 d10 k3, PS) the value was 33%.
Turning to CCAGATTGCACAAACC (sugars k3 d10 k3, PS), the target mRNA inhibition is, setting by setting: (0.02 µM) 0%; (0.078 µM) 17%; (0.313 µM) 51%; (1 µM) 72%; (1.25 µM) 78%; (5 µM) 92%.
The sequence CTTTGAGACTCTTGTT (sugars k3 d10 k3, PS) yielded a target mRNA inhibition (1 µM) of 61%.
On the same count and under the same terms, next, “TGTCCAGGTTGAGATA (sugars kkdddddddddkekek, PS)”: 48%.
For GCAGAAATTCACCTTG (sugars k3 d10 k3, PS), the target mRNA inhibition runs as follows: (0.02 µM) 5%; (0.078 µM) 19%; (0.313 µM) 26%; (1 µM) 74%; (1.25 µM) 70%; (5 µM) 88%.
The sequence “AGCCAGTACAGTTCCT (sugars k3 d9 k3 e1, PS)” came in with a target mRNA inhibition (1 µM) of 59%.
Turning to GTTGATAAAATAGGGT (sugars k3 d10 k3, PS), the target mRNA inhibition (1 µM) is 42%.
The same measure, in the same setting: for ATGAGGTTTTGATACC (sugars k3 d10 k3, PS) the value was 47%; for CTTGATGATTCTGACT (sugars k3 d10 k3, PS), 57%; for “CCGTTTTGGGCTAATG (sugars k3 d9 k3 e1, PS)”, 69%.
For the sequence ATCTATTATGCACTCT (sugars k3 d10 k3, PS), the target mRNA inhibition (1 µM) was determined as 24%.
The same measure, in the same setting: for ATAGTTCAAATTGGAT (sugars k3 d10 k3, PS) the value was 48%.
The same measure, in the same setting: next, “TGTGATTGAGTTCTCC (sugars k3 d1 m1 d8 k3, PS)”: 34%; AATATGGGATGAGGTA (sugars k3 d10 k3, PS): 53%.
